# Data: publication PMC8247773, “Benzohydrazide and Phenylacetamide Scaffolds: New Putative ParE Inhibitors” (Frontiers in Bioengineering and Biotechnology, 2021)
# “And” between values parts separate entries of the source, which are not always exact repeats. Identical values can stand only once.
# Columns and labels:
# [1] = tested on: Escherichia coli (NCIM 2065); test: Antibacterial susceptibility test, microbroth dilution MIC; format: cell-based; details: E. Coli (NCIM 2065); mean ± SD
# [2] = tested on: MRSA (NCIM 5021); test: as above; format: cell-based, methicillin-resistant Staphylococcus aureus; details: mean ± SD
# [3] = tested on: MRSA (ATCC43300); test: as above; format: cell-based, methicillin-resistant Staphylococcus aureus; details: mean ± SD
# [4] = tested on: Escherichia coli (NCIM 2065); test: Minimum bactericidal concentration (MBC); format: cell-based; details: E. Coli (NCIM 2065)
# Procedure: (§1) MBC can be defined as the minimum concentration of a compound required to kill the bacteria over a fixed period under precise conditions. […] Colonies were counted, and colony forming unit (CFU) per milliliter was calculated.
# [5] = tested on: MRSA (ATCC43300); test: Minimum bactericidal concentration (MBC); format: cell-based, methicillin-resistant Staphylococcus aureus
# Procedure: as §1
# [6] = tested on: MRSA (NCIM 5021); test: Minimum bactericidal concentration (MBC); format: cell-based, methicillin-resistant Staphylococcus aureus
# Procedure: as §1
# [7] = tested on: E. coli; test: Checkerboard synergy with FDA approved drugs; format: cell-based, Escherichia coli; details: ciprofloxacin, gentamicin, rifampicin and doxycycline
# [8] = tested on: E. coli; test: Post antibiotic effect (PAE); format: cell-based, Escherichia coli; details: for Time for 1 log10: untreated control 2 h
# [9] = target: T1, E. coli ParE enzyme (Escherichia coli, UniProt P20083); test: E. coli ParE ATPase enzyme inhibition assay (ProFoldin kit, malachite green); format: biochemical; details: ATPase activity, mean ± SD (n = 3)
# T1 construct: purchased ProFoldin, Hudson, United States
# T1 sequence (P20083 whole entry): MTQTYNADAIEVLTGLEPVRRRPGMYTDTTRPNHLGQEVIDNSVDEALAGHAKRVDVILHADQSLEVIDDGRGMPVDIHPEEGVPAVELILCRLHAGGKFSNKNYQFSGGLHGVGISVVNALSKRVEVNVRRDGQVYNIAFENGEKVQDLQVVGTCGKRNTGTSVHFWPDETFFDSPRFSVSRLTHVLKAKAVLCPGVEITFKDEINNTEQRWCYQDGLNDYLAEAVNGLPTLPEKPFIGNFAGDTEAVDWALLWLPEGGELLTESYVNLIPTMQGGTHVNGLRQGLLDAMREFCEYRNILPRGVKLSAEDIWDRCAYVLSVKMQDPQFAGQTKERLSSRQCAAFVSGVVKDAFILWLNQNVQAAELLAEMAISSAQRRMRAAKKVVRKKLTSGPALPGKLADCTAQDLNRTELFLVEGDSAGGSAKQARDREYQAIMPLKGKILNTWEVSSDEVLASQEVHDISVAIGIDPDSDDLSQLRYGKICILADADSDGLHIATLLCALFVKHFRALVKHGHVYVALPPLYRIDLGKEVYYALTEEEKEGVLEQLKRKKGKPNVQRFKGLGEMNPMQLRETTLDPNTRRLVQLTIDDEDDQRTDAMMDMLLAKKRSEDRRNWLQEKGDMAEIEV
# T1 sequence (P0AFI2 whole entry, further chain): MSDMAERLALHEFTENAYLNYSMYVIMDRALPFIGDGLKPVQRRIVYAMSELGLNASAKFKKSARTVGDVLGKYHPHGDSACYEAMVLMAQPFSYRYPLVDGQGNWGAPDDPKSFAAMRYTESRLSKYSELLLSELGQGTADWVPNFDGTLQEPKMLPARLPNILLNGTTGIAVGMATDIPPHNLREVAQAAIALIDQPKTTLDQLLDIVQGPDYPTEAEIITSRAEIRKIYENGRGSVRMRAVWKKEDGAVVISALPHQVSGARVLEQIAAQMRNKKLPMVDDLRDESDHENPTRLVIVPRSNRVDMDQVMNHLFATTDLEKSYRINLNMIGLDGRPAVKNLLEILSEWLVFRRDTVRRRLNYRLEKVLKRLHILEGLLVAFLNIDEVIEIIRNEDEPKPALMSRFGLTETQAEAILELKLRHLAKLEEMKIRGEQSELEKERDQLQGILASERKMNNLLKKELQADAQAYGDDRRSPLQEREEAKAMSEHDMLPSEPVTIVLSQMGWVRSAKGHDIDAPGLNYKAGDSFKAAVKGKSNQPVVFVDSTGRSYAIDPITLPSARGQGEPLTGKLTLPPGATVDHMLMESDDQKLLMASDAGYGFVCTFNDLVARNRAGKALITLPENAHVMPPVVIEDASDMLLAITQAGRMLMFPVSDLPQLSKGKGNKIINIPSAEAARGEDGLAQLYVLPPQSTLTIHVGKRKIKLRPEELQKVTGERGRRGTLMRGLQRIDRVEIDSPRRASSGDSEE
# Procedure, shortened: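 E. coli ParE ATPase activity measured as inorganic phosphate released from ATP hydrolysis in the presence of DNA. Reaction ran 1 h at 37°C, quenched with malachite green dye, absorbance read at 650 nm after 5 min. IC50 from non-linear regression against no-enzyme and no-compound controls.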
# [10] = tested on: E. coli; test: Time-kill kinetics; format: cell-based, Escherichia coli; details: 0.5× and 1.0× MIC, 0-24 h
# Procedure: Bactericidal activity was evaluated for the compounds by the time-kill kinetics. […] 50 μL aliquot of the culture was inoculated at regular time intervals of 0, 2, 4, 8, 16, and 24 h onto the solidified agar plates, followed by incubation at 37°C for 24 h. Ciprofloxacin is used as a reference throughout the study. CFU was calculated by the colonies formed on the agar plate at each time interval. Time-kill curves were plotted using the CFU/mL of surviving bacteria at each time point in the absence or presence of the compound ([Tsuji et al., 2008]).
# [11] = tested on: Vero cells
# [12] = tested on: Klebsiella pneumonia (NCIM 2706); design: method as in Yele et al., 2020, 2021; details: ref Yele et al., 2020, 2021; cited from earlier work
# [13] = tested on: Pseudomonas aeruginosa (NCIM 2036); design: method as in Yele et al., 2020, 2021; details: ref Yele et al., 2020, 2021; cited from earlier work
# [14] = tested on: Escherichia coli (NCIM 2567); design: method as in Yele et al., 2020, 2021; details: ref Yele et al., 2020, 2021; cited from earlier work
# [15] = tested on: Staphylococcus epidermis (NCIM 2493); design: method as in Yele et al., 2020, 2021; details: ref Yele et al., 2020, 2021; cited from earlier work
# [16] = tested on: Staphylococcus aureus (NCIM 5022); design: method as in Yele et al., 2020, 2021; details: ref Yele et al., 2020, 2021; cited from earlier work
# [17] = tested on: Bacillus subtilis (NCIM 2545); design: method as in Yele et al., 2020, 2021; details: ref Yele et al., 2020, 2021; cited from earlier work
# [18] = tested on: Mycobacterium tuberculosis (NCIM 2984); design: method as in Yele et al., 2020, 2021; details: ref Yele et al., 2020, 2021; cited from earlier work
# [19] = tested on: Vero cells; test: In vitro cytotoxicity MTT assay; details: CC50 Vero cells / IC50
structure (smiles),measurement,setting,value
O=C(COc1ccccc1NC(=O)CCl)Nc1ccc(C(=O)O)cc1Br [Compound 5],Minimum inhibitory concentration,[1],0.64 µg/mL and 0.64 ± 0.03 µg/mL
same,Minimum inhibitory concentration,[2],0.72 ± 0.05 µg/mL
same,Minimum inhibitory concentration,[3],0.68 µg/mL and 0.68 ± 0.08 µg/mL
same,MBC,[4],0.64 ± 0.42 µg/mL
same,MBC/MIC,"[4]; ratio ≤2 bactericidal, ≥4 tolerance",1
same,MBC,[5],0.68 ± 0.08 µg/mL
same,MBC/MIC,[5],1
same,MBC,[6],1.54 ± 0.11 µg/mL
same,MBC/MIC,[6],2
same,Synergy with FDA-approved antibiotics,[7],synergized
same,PAE = T - C,[8]; 1 × mic,1 h
same,Time for 1 log10,[8]; 1 × mic,3 h
same,PAE = T - C,[8]; 10 × mic,~2 h
same,Time for 1 log10,[8]; 10 × mic,4 h
same,IC50 against E. coli ParE enzyme,[9],0.35 ± 0.03 µg/mL
same,Time-kill kinetics result,[10],bactericidal property
same,CC50,[11],61.7583 µg/mL
same,Minimum inhibitory concentration (MIC) K. p,[12],7.52
same,Minimum inhibitory concentration (MIC) P. a,[13],6.25
same,Minimum inhibitory concentration (MIC) E. c,[14],8.25
same,Minimum inhibitory concentration (MIC) S. e,[15],5.63
same,Minimum inhibitory concentration (MIC) S. a,[16],2.64
same,Minimum inhibitory concentration (MIC) B. s,[17],7.82
same,Minimum inhibitory concentration (MIC) M. t,[18],0.78
same,SI (CC50/IC50),[19],176.4531
